According to ChEMBL document CHEMBL4813957, “Antitubercular properties of thiazolidin-4-ones - A review” (Eur J Med Chem, 2021):
In brackets after ≈: the same amount, converted by molar mass.

What was measured:
[1] = system: Mycobacterium tuberculosis; assay: Antimycobacterial activity against Mycobacterium tuberculosis H37Rv ATCC 27294 assessed as growth inhibition at 12.5 ug/ml by microplate alamar blue assay relative to control; type: functional; details: read-out: GI
[2] = system: Mycobacterium tuberculosis; assay: Antimycobacterial activity against Mycobacterium tuberculosis H37Rv by filter paper disc diffusion method; type: functional
[3] = system: Mycobacterium tuberculosis; assay: Antimycobacterial activity against Mycobacterium tuberculosis H37Rv ATCC 27294 incubated for 5 days by microplate alamar blue assay; type: functional; details: H37Rv ATCC 27294, 120 h, time 5 day
[4] = system: Mycobacterium tuberculosis; assay: Antimycobacterial activity against Mycobacterium tuberculosis H37Rv ATCC27294 measured after 28 days by two-fold serial dilution method; type: functional; details: H37Rv ATCC 27294, 672 h, time 28 day
[5] = system: Mycobacterium tuberculosis; assay: Antimycobacterial activity against Mycobacterium tuberculosis H37Rv by Lowenstein-Jensen agar method; type: functional
[6] = system: Mycobacterium tuberculosis; assay: Antimycobacterial activity against Mycobacterium tuberculosis H37Rv measured after 12 to 28 days by Lowenstein-Jensen method; type: functional; details: time 12-28 day
[7] = system: Mycobacterium tuberculosis; assay: Antimycobacterial activity against Mycobacterium tuberculosis H37Rv assessed as inhibition of bacteria at 12.5 ug/ml by microplate alamar blue assay relative to control; type: functional
[8] = system: Mycobacterium tuberculosis; assay: Antimycobacterial activity against Mycobacterium tuberculosis H37Rv assessed as bacterial inhibition at 25 ug/ml by microplate alamar blue assay relative to control; type: functional
[9] = system: Mycobacterium tuberculosis; assay: Antimycobacterial activity against Mycobacterium tuberculosis H37Ra ATCC 25177 by XTT Reduction Menadione assay; type: functional
[10] = system: Mycobacterium tuberculosis; assay: Antimycobacterial activity against Mycobacterium tuberculosis H37Ra ATCC 25177 measured on 12th day by XTT reduction menadione assay; type: functional; details: H37Ra ATCC 25177, 288 h, time 12 day
[11] = system: Mycobacterium tuberculosis; assay: Antimycobacterial activity against Mycobacterium tuberculosis H37Rv measured after 11 to 12 days; type: functional; details: time 11-12 day
[12] = system: Mycobacterium tuberculosis; assay: Antimycobacterial activity against Mycobacterium tuberculosis measured up to 2 weeks; type: functional; details: 336 h, time weeks <=2
[13] = system: Mycobacterium tuberculosis; assay: Antimycobacterial activity against Mycobacterium tuberculosis HN878 measured up to 2 weeks; type: functional; details: HN878, 336 h, time weeks <=2
[14] = system: Mycobacterium tuberculosis; assay: Antimycobacterial activity against Mycobacterium tuberculosis Erdman measured up to 2 weeks; type: functional; details: 336 h, time weeks <=2
[15] = system: Mycobacterium tuberculosis; assay: Antimycobacterial activity against Mycobacterium tuberculosis H37Rv ATCC27294 incubated for 7 days by microplate alamar blue assay; type: functional; details: H37Rv ATCC 27294, 168 h, time 7 day
[16] = system: Mycolicibacterium smegmatis; assay: Antimycobacterial activity against Mycobacterium smegmatis ATCC 35797 incubated for 48 hrs by agar dilution method; type: functional
[17] = system: Mycobacterium tuberculosis; assay: Antimycobacterial activity against Mycobacterium tuberculosis ATCC 27286 assessed as zone of inhibition at 20 ug/ml; type: functional; details: read-out: IZ
[18] = system: Mycobacterium tuberculosis; assay: Antimycobacterial activity against Mycobacterium tuberculosis H37Rv incubated for 7 days by microplate alamar blue assay; type: functional; details: 168 h, time 7 day
[19] = system: Mycobacterium tuberculosis; assay: Antimycobacterial activity against Mycobacterium tuberculosis H37Rv incubated for 45 days by Lowenstein-Jensen method; type: functional; details: 1080 h, time 45 day
[20] = system: Mycobacterium tuberculosis; assay: Antimycobacterial activity against Mycobacterium tuberculosis H37Rv ATCC 25618 incubated for 5 days by colorimetric microdilution assay; type: functional; details: H37Rv ATCC 25618, 120 h, time 5 day
[21] = system: Mycobacterium tuberculosis; assay: Antimycobacterial activity against Mycobacterium tuberculosis H37Rv 27294 by microplate alamar blue assay; type: functional
[22] = Cytotoxicity against African green monkey Vero cells after 72 hrs by cell titer glo luminescent cell viability assay; type: cell-based; details: chlorocebus sabaeus
[23] = Selectivity ratio of CC50 for African green monkey Vero E6 cells to IC90 for Mycobacterium tuberculosis H37Rv 27294; type: toxicity, Vero C1008
[24] = Inhibition of Mycobacterium tuberculosis Pantothenate Synthetase expressed in Escherichia coli BL21(DE3) cells using beta-alanine as substrate
[25] = target: T1, Enoyl-[acyl-carrier-protein] reductase [NADH] (Mycobacterium tuberculosis, UniProt P9WGR1); assay: Inhibition of Mycobacterium tuberculosis InhA
T1 sequence (P9WGR1 whole entry): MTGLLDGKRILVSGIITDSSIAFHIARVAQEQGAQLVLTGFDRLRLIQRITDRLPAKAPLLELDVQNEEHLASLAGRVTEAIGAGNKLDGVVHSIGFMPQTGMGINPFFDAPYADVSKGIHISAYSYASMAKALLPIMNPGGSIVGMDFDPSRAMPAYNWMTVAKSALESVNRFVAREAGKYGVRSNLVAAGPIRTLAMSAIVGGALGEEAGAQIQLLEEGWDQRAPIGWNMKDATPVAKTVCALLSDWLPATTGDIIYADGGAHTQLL

[26] = system: Mycobacterium tuberculosis; assay: Antimycobacterial activity against Mycobacterium tuberculosis H37Rv incubated for 4 weeks; type: functional; details: 672 h
[27] = system: Mycobacterium tuberculosis; assay: Antimycobacterial activity against Mycobacterium tuberculosis H37Ra ATCC 25177 assessed as inhibition of bacteria at 30 ug/ml by XTT reduction menadione assay relative to control; type: functional
[28] = system: Mycobacterium tuberculosis; assay: Antimycobacterial activity against Mycobacterium tuberculosis H37Rv assessed as inhibition of bacteria at 12.5 ug/ml measured after 12 to 28 days by Lowenstein-Jensen method relative to control; type: functional; details: time 12-28 day
[29] = system: Mycobacterium tuberculosis; assay: Antimycobacterial activity against Mycobacterium tuberculosis RCMB 010126 measured after 7 days by microplate alamar blue assay; type: functional; details: RCMB 010126, 168 h, time 7 day
WI-38 = assay: Cytotoxicity against human WI-38 cells by MTT assay; type: cell-based
[30] = Selectivity ratio of IC50 for human WI-38 cells to MIC for Mycobacterium tuberculosis RCMB 010126; type: toxicity
[31] = system: Mycobacterium tuberculosis; assay: Antimycobacterial activity against Mycobacterium tuberculosis H37Rv incubated for 7 days by resazurin dye based assay; type: functional; details: 168 h, time 7 day
[32] = system: Mycobacterium tuberculosis; assay: Antimycobacterial activity against Mycobacterium tuberculosis H37Rv assessed as growth inhibition at 16 ug/ml measured after 12 to 28 days by Lowenstein-Jensen agar method relative to control; type: functional; details: time 12-28 day, read-out: GI
[33] = system: Mycobacterium tuberculosis; assay: Antimycobacterial activity against Mycobacterium tuberculosis H37Rv by Lowenstein-Jensen method; type: functional
[34] = system: Mycobacterium tuberculosis; assay: Antimycobacterial activity against Mycobacterium tuberculosis H37Rv ATCC 27294 by BACTEC radiometric method; type: functional
[35] = system: Mycobacterium tuberculosis; assay: Antimycobacterial activity against Mycobacterium tuberculosis H37Rv assessed as mycobacterial growth inhibition at 12.5 ug/ml relative to control; type: functional; details: read-out: GI
[36] = system: Mycobacterium tuberculosis; assay: Antimycobacterial activity against Mycobacterium tuberculosis H37Rv ATCC 27294; type: functional

O=C1CSC(c2c(-c3ccccc3)[nH]c3ccc(Cl)cc23)N1c1nc(-c2cc3cc(Br)ccc3oc2=O)cs1 (stereo unspecified)
inhibition of growth at 12.5 µg/mL [1]: 80%

CO[C@H]1/C=C/O[C@@]2(C)Oc3c(C)c(O)c4c(O)c(c(/C=N/N5CCN(C)CC5)c(O)c4c3C2=O)NC(=O)/C(C)=C\C=C\[C@H](C)[C@H](O)[C@@H](C)[C@@H](O)[C@@H](C)[C@H](OC(C)=O)[C@@H]1C [RIFAMPIN]
MIC [2]: 2.5 µg/mL (≈ 3.04 µM) | MIC [3]: 1 µg/mL (≈ 1.22 µM) | MIC [4]: 0.24 µM (≈ 0.198 µg/mL) | MIC [5]: 40 µg/mL (≈ 48.6 µM) | MIC [6]: 40 µg/mL (≈ 48.6 µM)

CCCCCCCCCCCCN1C(=O)C(CC(=O)O)SC12CCN(C(=O)C(N)Cc1ccccc1)CC2 (stereo unspecified)
inhibition at 12.5 µg/mL [7]: 94% | inhibition at 25 µg/mL [8]: 97%

O=C1NC(=S)S/C1=C\c1ccc([N+](=O)[O-])cc1
IC90 [9]: 22.3 µg/mL (≈ 83.7 µM)

O=C1CSC(c2ccc(OCc3cc4ccccc4n4nnnc34)cc2)N1c1ccc([N+](=O)[O-])cc1 (stereo unspecified)
MIC [10]: 20.3 µg/mL (≈ 40.8 µM)

O=C(O)CCCCCC1NC(=O)CS1 (stereo unspecified)
MIC [11]: 1.56 µM (≈ 0.339 µg/mL) | MIC [12]: 0.096 µM (≈ 0.0209 µg/mL) | MIC [13]: 0.6 µM (≈ 0.13 µg/mL) | MIC [14]: 1.56 µM (≈ 0.339 µg/mL)

NNC(=O)c1ccncc1 [ISONIAZID]
MIC [2]: 1.25 µg/mL (≈ 9.11 µM) | MIC [15]: 0.56 µg/mL (≈ 4.08 µM) | MIC [16]: 12.5 µg/mL (≈ 91.1 µM) | MIC [3]: 0.2 µg/mL (≈ 1.46 µM) | zone of inhibition at 20 µg/mL [17]: 31 mm | MIC [18]: 1.6 µg/mL | MIC [4]: 0.72 µM (≈ 0.0987 µg/mL) | MIC [19]: 0.64 µM (≈ 0.0878 µg/mL)

C/C(=N/N=C1\NC(=O)CS1)c1cc2ccccc2oc1=O
MIC [20]: 83 µg/mL (≈ 275 µM)

CCN1C(=O)/C(=C/c2ccc(OC)cc2)S/C1=N/NC(=O)c1ccncc1
IC90 [21]: 2.95 µg/mL (≈ 7.72 µM) | CC50 at 72 h [22]: 36.9 µg/mL (≈ 96.4 µM) | selectivity ratio [23]: 18.1

COc1cc(/C=C2\SC(=S)N(CCC(=O)NNC(=O)c3ccncc3)C2=O)cc(OC)c1OC
MIC [18]: 1.55 µM | IC50 [24]: 350 nM

O=C(NN1C(=O)CSC1c1c[nH]c2ccccc12)c1ccncc1 (stereo unspecified)
zone of inhibition at 20 µg/mL [17]: 35 mm | Ki [25]: 641 nM

COc1ccc(/C=C2\SC(=O)N(CNNC(=O)c3ccncc3)C2=O)cc1
MIC [26]: 50 µg/mL (≈ 130 µM)

Cc1nc(-c2cnccn2)sc1C(=O)NN1C(=O)CSC1c1ccccc1 (stereo unspecified)
inhibition at 30 µg/mL [27]: 71%

O=C1CSC(c2cc3ccccc3nc2Cl)N1c1ccc(F)cc1 (stereo unspecified)
inhibition at 12.5 µg/mL [28]: 99%

CCOC(=O)c1sc(/N=C2\NC(=O)/C(=C/c3cccnc3)S2)nc1C
MIC [29]: 1.56 µg/mL (≈ 4.17 µM) | IC50 (WI-38): 81.3 µg/mL (≈ 217 µM) | selectivity ratio [30]: 52

O=C1C(CN2CCOCC2)SC(c2ccc(Cl)cc2)N1c1ccc(Cl)cc1 (stereo unspecified)
MIC [31]: 25 µg/mL (≈ 59.1 µM)

COc1ccc(C(CNC(=O)CNN2C(=O)CSC2c2ccc(O)c(OC)c2)C2(O)CCCCC2)cc1 (stereo unspecified)
inhibition of growth at 16 µg/mL [32]: 99%

COc1cc(C2SCC(=O)N2NC2=Nc3ccccc3Sc3ccccc32)cc(OC)c1OC (stereo unspecified)
MIC [33]: 125 µg/mL (≈ 253 µM)

O=C(NN1C(=O)CSC1c1ccc([N+](=O)[O-])cc1)c1[nH]c2ccc(F)cc2c1-c1ccccc1 (stereo unspecified)
MIC [34]: 6.25 µg/mL (≈ 13.1 µM)

CC1SC(c2ccc(O)cc2)N(Nc2nc(-c3ccccc3)c(C#N)c(=O)n2C)C1=O (stereo unspecified)
inhibition of growth at 12.5 µg/mL [35]: 44%

N#Cc1ccc(C2SCC(=O)N2NC(=O)c2[nH]c3ccc(F)cc3c2-c2ccccc2)cc1 (stereo unspecified)
MIC [34]: 6.25 µg/mL (≈ 13.7 µM)

O=C(CNNC(=O)c1ccncc1)COc1ccc(/C=C2\SC(=O)NC2=O)cc1
MIC [26]: 50 µg/mL (≈ 121 µM)

CCn1c(C(=O)NN2C(=O)CSC2c2ccc([N+](=O)[O-])cc2)cc(=O)c2cc(F)c(N3CCNCC3)cc21 (stereo unspecified)
MIC [36]: 16.3 µM (≈ 8.8 µg/mL)

O=C(CCN1C(=O)/C(=C/c2ccc([N+](=O)[O-])cc2)SC1=S)NNC(=O)c1ccccc1
MIC [18]: 1.71 µM | IC50 [24]: 370 nM
